Laboratory results published in US20240165199A1, “PROX1 PREVENTS MYXOMATOUS VALVE DISEASE BY INHIBITING PDGF-B SIGNALING” (Oklahoma Medical Research Foundation, priority 2022, published 2024).
Entries after “also recorded” stand apart in the source; their conditions may differ. Where two headings read alike, the source gives them in different places.

How the values were obtained:
PDGFRβ = PDGFRβ (Homo sapiens, UniProt P09619); conditions: not specific for PDGFRβ; cited from earlier work
c-Kit = c-Kit (Homo sapiens, UniProt P10721); conditions: cited from earlier work
PDGFRα = PDGFRα (Homo sapiens, UniProt P16234); conditions: cited from earlier work
Prox1^ΔVEC mice = conditions: 50 mg/kg body weight/day oral; for aortic peak velocity: 24 weeks from 1 month of age, echocardiography, vs untreated Prox1^ΔVEC mice; for aortic peak velocity / platelet aggregate-like (thrombus-like) structures in aortic valves / abnormal elastin expression/distribution in aortic valves / aortic valve thickness (progressive thickening) / versican expression in aortic valves: 50 mg/kg/day; for platelet aggregate-like (thrombus-like) structures in aortic valves / abnormal elastin expression/distribution in aortic valves / aortic valve thickness (progressive thickening) / versican expression in aortic valves: 24 weeks; for platelet aggregate-like (thrombus-like) structures in aortic valves: Movat Pentachrome-stained sections; for abnormal elastin expression/distribution in aortic valves: downstream side of aortic valves; for aortic valve thickness (progressive thickening): histology, area of valve leaflets; for versican expression in aortic valves: immunohistochemistry; for valve defects / progression of valve disease: mice lacking Prox1 (Prox1^ΔVEC)
[1] = system: patients with PDGFRβ hyperactivating mutations; conditions: cited from earlier work

Sequence of PDGFRα (P16234 24-1089, species assumed): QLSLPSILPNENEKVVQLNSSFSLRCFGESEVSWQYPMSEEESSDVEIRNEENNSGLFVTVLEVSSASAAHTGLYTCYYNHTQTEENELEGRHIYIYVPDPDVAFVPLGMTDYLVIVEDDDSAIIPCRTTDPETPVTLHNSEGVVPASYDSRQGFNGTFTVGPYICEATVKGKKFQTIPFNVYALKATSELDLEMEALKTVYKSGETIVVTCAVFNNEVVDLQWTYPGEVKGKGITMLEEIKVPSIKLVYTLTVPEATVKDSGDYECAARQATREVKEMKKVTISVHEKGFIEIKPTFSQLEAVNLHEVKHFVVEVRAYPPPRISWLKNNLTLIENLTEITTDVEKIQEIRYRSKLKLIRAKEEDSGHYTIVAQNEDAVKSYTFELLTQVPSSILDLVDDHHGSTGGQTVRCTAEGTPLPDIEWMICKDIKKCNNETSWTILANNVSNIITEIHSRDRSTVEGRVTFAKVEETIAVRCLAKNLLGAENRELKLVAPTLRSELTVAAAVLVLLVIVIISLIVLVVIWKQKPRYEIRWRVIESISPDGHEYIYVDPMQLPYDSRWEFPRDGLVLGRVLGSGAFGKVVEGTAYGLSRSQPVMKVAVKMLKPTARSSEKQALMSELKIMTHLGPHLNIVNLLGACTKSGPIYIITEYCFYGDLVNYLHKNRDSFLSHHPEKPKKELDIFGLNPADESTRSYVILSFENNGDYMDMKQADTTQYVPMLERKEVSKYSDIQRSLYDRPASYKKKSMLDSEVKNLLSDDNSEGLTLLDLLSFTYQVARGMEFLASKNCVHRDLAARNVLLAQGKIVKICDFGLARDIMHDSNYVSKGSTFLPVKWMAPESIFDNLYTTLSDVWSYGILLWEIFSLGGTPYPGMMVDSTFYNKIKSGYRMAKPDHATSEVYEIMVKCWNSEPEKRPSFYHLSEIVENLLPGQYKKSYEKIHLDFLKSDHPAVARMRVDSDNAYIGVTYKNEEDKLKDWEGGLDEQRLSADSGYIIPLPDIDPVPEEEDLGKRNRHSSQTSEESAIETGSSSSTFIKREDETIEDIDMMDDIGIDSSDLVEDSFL
Sequence of PDGFRβ (P09619 33-1106): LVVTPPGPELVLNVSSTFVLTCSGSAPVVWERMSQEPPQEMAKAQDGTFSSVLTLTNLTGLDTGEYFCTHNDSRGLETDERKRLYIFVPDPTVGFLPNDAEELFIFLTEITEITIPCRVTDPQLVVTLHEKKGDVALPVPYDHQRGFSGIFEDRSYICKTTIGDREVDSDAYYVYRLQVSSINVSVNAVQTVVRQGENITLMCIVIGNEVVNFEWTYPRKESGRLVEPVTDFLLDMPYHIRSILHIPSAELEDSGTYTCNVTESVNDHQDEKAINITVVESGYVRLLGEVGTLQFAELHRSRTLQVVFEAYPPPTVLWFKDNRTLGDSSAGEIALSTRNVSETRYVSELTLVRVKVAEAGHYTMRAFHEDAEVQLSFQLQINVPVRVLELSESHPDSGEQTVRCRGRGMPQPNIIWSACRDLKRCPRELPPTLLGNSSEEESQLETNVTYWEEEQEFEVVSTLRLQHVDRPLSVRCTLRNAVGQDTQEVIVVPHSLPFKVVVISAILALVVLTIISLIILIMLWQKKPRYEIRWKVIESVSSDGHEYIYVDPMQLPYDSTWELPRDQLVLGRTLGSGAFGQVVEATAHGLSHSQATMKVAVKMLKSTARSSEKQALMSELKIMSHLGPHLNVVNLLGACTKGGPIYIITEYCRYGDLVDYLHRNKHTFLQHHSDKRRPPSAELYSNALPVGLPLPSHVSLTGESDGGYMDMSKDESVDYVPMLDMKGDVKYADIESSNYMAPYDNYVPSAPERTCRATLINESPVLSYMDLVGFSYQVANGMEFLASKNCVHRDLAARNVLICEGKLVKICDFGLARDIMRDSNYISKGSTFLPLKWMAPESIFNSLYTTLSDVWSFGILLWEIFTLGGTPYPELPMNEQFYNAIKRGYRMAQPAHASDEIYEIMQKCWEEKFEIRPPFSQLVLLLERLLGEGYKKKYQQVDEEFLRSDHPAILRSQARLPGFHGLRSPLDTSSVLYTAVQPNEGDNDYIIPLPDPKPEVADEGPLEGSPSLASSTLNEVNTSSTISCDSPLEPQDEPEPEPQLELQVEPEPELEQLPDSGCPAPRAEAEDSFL
Sequence of c-Kit (P10721 26-976): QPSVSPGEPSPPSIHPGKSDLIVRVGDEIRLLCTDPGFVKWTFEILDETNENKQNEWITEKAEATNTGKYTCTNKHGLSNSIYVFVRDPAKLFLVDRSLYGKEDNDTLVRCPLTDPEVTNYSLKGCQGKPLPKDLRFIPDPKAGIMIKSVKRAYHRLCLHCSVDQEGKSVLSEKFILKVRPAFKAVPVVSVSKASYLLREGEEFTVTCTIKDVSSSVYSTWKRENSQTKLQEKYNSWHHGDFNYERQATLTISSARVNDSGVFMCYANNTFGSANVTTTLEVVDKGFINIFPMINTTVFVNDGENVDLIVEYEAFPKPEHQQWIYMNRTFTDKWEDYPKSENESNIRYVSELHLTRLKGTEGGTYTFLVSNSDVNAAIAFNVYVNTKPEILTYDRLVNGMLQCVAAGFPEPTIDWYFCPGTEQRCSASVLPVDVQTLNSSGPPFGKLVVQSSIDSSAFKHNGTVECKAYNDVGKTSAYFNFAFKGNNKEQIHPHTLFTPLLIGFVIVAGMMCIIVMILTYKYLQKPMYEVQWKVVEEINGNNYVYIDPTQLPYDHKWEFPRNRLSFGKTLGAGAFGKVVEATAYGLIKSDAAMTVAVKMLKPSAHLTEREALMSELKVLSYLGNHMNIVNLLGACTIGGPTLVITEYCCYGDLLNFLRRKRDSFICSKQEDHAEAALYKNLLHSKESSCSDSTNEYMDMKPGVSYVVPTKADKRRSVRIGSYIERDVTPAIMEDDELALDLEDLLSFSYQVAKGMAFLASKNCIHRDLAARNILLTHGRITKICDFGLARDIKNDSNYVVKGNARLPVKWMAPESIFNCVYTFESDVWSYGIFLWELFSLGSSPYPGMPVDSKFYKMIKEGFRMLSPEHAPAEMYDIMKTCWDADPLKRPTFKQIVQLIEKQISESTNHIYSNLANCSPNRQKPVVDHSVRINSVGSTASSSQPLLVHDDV

## Cc1ccc(NC(=O)c2ccc(CN3CCN(C)CC3)cc2)cc1Nc1nccc(-c2cccnc2)n1 [imatinib]
PDGFRβ
  inhibition of kinase activity: inhibits the activity
c-Kit
  inhibition of kinase activity: inhibits the activity
PDGFRα
  inhibition of kinase activity: inhibits the activity
Prox1^ΔVEC mice; Prox1^ΔVEC mice, 6 months
  elastin expression in mitral valves: significantly normalized
  expression of SOX9 in the aortic and mitral valves: normalized
  thickness of the mitral valves: did not reduce
  versican expression in mitral valves: significantly normalized
Prox1^ΔVEC mice; Prox1^ΔVEC mice
  aortic peak velocity: preventing an increase in peak velocity
  platelet aggregate-like (thrombus-like) structures in aortic valves: reduced by imatinib treatment
  abnormal elastin expression/distribution in aortic valves: significantly reduced
  aortic valve thickness (progressive thickening): does not ameliorate the progressive thickening
  versican expression in aortic valves: reduced the expression of versican
Prox1^ΔVEC mice; Prox1^ΔVEC mice, listed as Imb
  aortic peak velocity: lowered aortic peak velocity
  platelet aggregate-like (thrombus-like) structures in aortic valves: reduced
  abnormal elastin expression/distribution in aortic valves: rescued
  aortic valve thickness (progressive thickening): not reduced
  versican expression in aortic valves: inhibited
Prox1^ΔVEC mice; 6 months
  valve defects / progression of valve disease: partially rescue the valve defects; also recorded: prevents the progression of valve disease
Prox1^ΔVEC mice; 6 months, listed as Imatinib
  valve defects / progression of valve disease: Attenuates Aortic Valve Degeneration
[1]
  connective tissue disorders: ameliorated
